In publication PMC2680982, “The cAMP-Dependent Protein Kinase Inhibitor H-89 Attenuates the Bioluminescence Signal Produced by Renilla Luciferase” (PLoS ONE, 2009):

Target: T1, RLuc8 (Renilla luciferase variant) (Renilla reniformis, UniProt P27652, A55T/C124A/S130A/K136R/A143M/M185V/M253L/S287L)
T1 construct: RLuc8 in pRSETB, purified on Ni-NTA from E. coli
T1 sequence (P27652 1-311 A55T/C124A/S130A/K136R/A143M/M185V/M253L/S287L): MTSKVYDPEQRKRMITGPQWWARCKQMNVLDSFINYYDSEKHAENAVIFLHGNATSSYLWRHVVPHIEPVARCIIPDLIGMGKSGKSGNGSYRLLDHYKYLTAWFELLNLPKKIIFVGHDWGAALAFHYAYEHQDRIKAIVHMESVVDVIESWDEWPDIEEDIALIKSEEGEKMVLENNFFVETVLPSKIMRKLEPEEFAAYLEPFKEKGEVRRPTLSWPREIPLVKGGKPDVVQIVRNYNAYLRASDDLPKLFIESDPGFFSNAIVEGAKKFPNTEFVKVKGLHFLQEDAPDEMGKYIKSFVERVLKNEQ
Experiment: bioluminescence inhibition of […] purified RLuc8 with coelenterazine-h titration
Format: biochemical

Compound `O=S(=O)(NCCNC/C=C/c1ccc(Br)cc1)c1cccc2cnccc12` [H-89, N-[2-(p-bromocinnamylamino)ethyl]-5-isoquinolinesulfonamide] has an IC50 of 21 µM.
